From patent US4963544A, “3-pyrrolidinylthio-1-azabicyclo[3.2.0]-hept-2-ene-2-carboxylic acid compounds” (Fujisawa Pharmaceutical Company, Ltd., priority 1988, dated 1990) come the findings set out here.

This assay relates to E. Coli 31. Description: in vitro antimicrobial activity, two-fold agar-plate dilution method. In kind it is cell-based. As to conditions: Escherichia coli; test strain E. Coli 31; 10^6 viable cells per ml; HI-agar; 37° C., 20 hours; read-out: MIC (minimal inhibitory concentration). The protocol:
in vitro Antimicrobial Activity was determined by the two-fold agar-plate dilution method as described blow.
One loopful of an overnight culture of a test strain in Trypticase-soy broth (10^6 viable cells per ml) was streaked on heart infusion agar (HI-agar) containing graded concentrations of the test compound, and the minimal inhibitory concentration (MIC) was expressed in terms of μg/ml after incubation at 37° C. for 20 hours.

In brackets after ≈: the same amount, converted by molar mass.

On to `C[C@@H](O)[C@H]1C(=O)N2C(C(=O)O)=C(S[C@@H]3CN[C@H](Cn4ccnc4)C3)[C@H](C)[C@H]12` [Example 2, (4R,5S,6S)-6-((IR)-1-hydroxyethyl) -3-((2S,4S)-2-(imidazol-1-yl)-methylpyrrolidin-4-yl) thio-4-methyl-7-oxo-1-azabicyclo(3.2.0) -hept-2-ene-2-carboxylic acid], for which the MIC amounted to 0.05 µg/mL (≈ 0.127 µM).
